Experiments:
[1] = target: T1, A3 receptor (Homo sapiens, UniProt P0DMS8); assay: Reporter gene experiments: A3 receptor gene assay, ECR relative to NECA; conditions: ECR = concentration ratio relative to NECA = 1
T1 sequence (P0DMS8 1-318): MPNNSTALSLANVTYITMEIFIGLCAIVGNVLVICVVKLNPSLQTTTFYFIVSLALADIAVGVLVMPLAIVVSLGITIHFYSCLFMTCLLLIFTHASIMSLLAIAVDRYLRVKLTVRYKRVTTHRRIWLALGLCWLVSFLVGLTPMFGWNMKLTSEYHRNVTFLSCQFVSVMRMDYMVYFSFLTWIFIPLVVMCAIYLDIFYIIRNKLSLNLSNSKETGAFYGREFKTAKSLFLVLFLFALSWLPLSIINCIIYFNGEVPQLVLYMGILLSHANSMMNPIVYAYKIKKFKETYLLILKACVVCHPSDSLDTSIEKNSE

[2] = target: T2, human adenosine A1 receptor (Homo sapiens, UniProt P30542); assay: Reporter gene experiments: inhibition of forskolin-stimulated SPAP production in CHO cells (CRE/SPAP/HYG), A1; format: cell-based; conditions: ECR = concentration ratio relative to NECA = 1, CHO cells co-expressing human adenosine A1 receptor
T2 construct: expressed in transfected cells; host or cells: Chinese hamster ovary (CHO) cells containing the CRE/SPAP/HYG reporter gene
T2 sequence (P30542 1-326): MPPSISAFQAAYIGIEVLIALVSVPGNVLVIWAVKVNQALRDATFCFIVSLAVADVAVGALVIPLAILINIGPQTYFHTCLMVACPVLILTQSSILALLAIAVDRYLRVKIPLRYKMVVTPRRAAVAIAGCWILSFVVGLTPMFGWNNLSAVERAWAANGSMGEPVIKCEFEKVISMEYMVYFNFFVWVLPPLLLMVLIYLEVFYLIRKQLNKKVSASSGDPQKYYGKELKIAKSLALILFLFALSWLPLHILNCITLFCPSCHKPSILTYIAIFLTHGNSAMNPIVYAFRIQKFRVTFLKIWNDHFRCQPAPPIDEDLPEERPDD
Procedure: Reporter Gene Experiments
Agonist activity was measured in Chinese hamster ovary (CHO) cells containing the CRE/SPAP/HYG (CRE=cyclic AMP response element; HYG=hygromycin; SPAP=secreted placental alkaline phosphatase) reporter gene, which upon stimulation of cAMP levels produced SPAP. A cell line was used, which stably co-expresses the human adenosine A1 receptor. Cells were plated out in 96-well plates in culture medium and incubated at 37° C. for 1 hour. […] All cells were then incubated for a further 5 hours at 37° C., and cooled to room temperature, after which a substrate for the phosphatase (para-nitrophenol phosphate,pNPP), which is broken down to a coloured reagent) was then added and the 96-well plates are read in a plate reader. From these readings, the concentration-dependence of the inhibition by the agonist of forskolin-stimulated SPAP production, can be calculated.

In the case of COC[C@H]1O[C@@H](n2cnc3c(N[C@@H]4C[C@@H]5CC[C@H]4C5)ncnc32)[C@H](O)[C@@H]1O (relative stereo) [Example 22, N-rel-[(1S,4R)-Bicyclo[2.2.1]hept-2R-yl]-5′-O-methyl-adenosine], the “A3 Receptor Gene Assay ECR” value [1] is reported as 112.
For COC[C@H]1O[C@@H](n2cnc3c(N[C@@H]4CCOC4)ncnc32)[C@H](O)[C@@H]1O [Example 1, 5′-O-Methyl-N-(tetrahydro-furan-3R-yl)-adenosine], the “A3 Receptor Gene Assay ECR” value [1] was over 129.
In the case of COC[C@H]1O[C@@H](n2cnc3c(NC4CCOCC4)ncnc32)[C@H](O)[C@@H]1O [Example 2, 5′-O-Methyl-N-(tetrahydro-pyran-4-yl)-adenosine], the “A1 Receptor Gene Assay ECR” value [2] is reported as 3.30, the melting point is reported as 133 to 134 °C and the “A3 Receptor Gene Assay ECR” value [1] is reported as 180.
For COC[C@H]1O[C@@H](n2cnc3c(N[C@H]4CCC[C@@H]4OC)ncnc32)[C@H](O)[C@@H]1O [Example 3, N-(2S-Methoxy-(S)-cyclopentyl)-5′-O-methyl-adenosine], the “A3 Receptor Gene Assay ECR” value [1] was 204.
With COC[C@H]1O[C@@H](n2cnc3c(N[C@@H]4CCO[C@H]4C)ncnc32)[C@H](O)[C@@H]1O [Example 4, 5′-O-Methyl-N-(2S-methyl-tetrahydro-furan-3R-yl)-adenosine] the “A3 Receptor Gene Assay ECR” value [1] was 338.
For COC[C@H]1O[C@@H](n2cnc3c(Nc4ccc(O)c(Cl)c4)ncnc32)[C@H](O)[C@@H]1O [Example 5, N-(3-Chloro-4-hydroxy-phenyl)-5′-O-methyl-adenosine], the “A1 Receptor Gene Assay ECR” value [2] was 6.21, the melting point was 225 to 230 °C and the “A3 Receptor Gene Assay ECR” value [1] was over 116.
In the case of COC[C@H]1O[C@@H](n2cnc3c(N[C@H](C)Cc4ccccc4)ncnc32)[C@H](O)[C@@H]1O [Example 6, 5′-O-Methyl-N-(1R-methyl-2-phenyl-ethyl)-adenosine], the “A1 Receptor Gene Assay ECR” value [2] is reported as 1.27 and the “A3 Receptor Gene Assay ECR” value [1] is reported as 5.00.
COC[C@H]1O[C@@H](n2cnc3c(N[C@H](C)CO)ncnc32)[C@H](O)[C@@H]1O [Example 14, N-(2-Hydroxy-1R-methyl-ethyl)-5′-O-methyl-adenosine] showed a melting point of 232 to 233 °C.
For COC[C@H]1O[C@@H](n2cnc3c(N[C@@H]4CCC[C@H]4O)ncnc32)[C@H](O)[C@@H]1O [Example 17, N-(2R-Hydroxy-(R)-cyclopentyl)-5′-O-methyl-adenosine], the “A1 Receptor Gene Assay ECR” value [2] was 3.90, the melting point was 202 to 204 °C and the “A3 Receptor Gene Assay ECR” value [1] was 57.3.
In the case of COC[C@H]1O[C@@H](n2cnc3c(NC(C)(C)C)ncnc32)[C@H](O)[C@@H]1O [Example 19, N-tert-Butyl-5′-O-methyl-adenosine], the “A1 Receptor Gene Assay ECR” value [2] is reported as 1.62 and the “A3 Receptor Gene Assay ECR” value [1] is reported as over 243.
With COC[C@H]1O[C@@H](n2cnc3c(N[C@H]4CCC[C@@H]4F)ncnc32)[C@H](O)[C@@H]1O [Example 20, N-(2S-Fluoro-(S)-cyclopentyl)-5′-O-methyl-adenosine] the “A3 Receptor Gene Assay ECR” value [1] was 54.8.
With CCOC(=O)N1CCC(Nc2ncnc3c2ncn3[C@@H]2O[C@H](COC)[C@@H](O)[C@H]2O)CC1 [Example 23, 4-[9-(3R,4S-Dihydroxy-5R-methoxymethyl-tetrahydro-furan-2R-yl)-9H-purin-6-ylamino]-piperidine-1-carboxylic acid ethyl ester] the “A1 Receptor Gene Assay ECR” value [2] was 2.20 and the “A3 Receptor Gene Assay ECR” value [1] was 162.
In the case of CNS(=O)(=O)CCNc1nc(C)nc2c1ncn2[C@@H]1O[C@H](COC)[C@@H](O)[C@H]1O [Example 25, 2-[9-(3R,4S-Dihydroxy-5R-methoxymethyl-tetrahydro-furan-2R-yl)-2-methyl-9H-purin-6-ylamino]-ethanesulfonic acid methylamide], the “A1 Receptor Gene Assay ECR” value [2] is reported as 1.67 and the “A3 Receptor Gene Assay ECR” value [1] is reported as over 288.
With COC[C@H]1O[C@@H](n2cnc3c(NC4CCCC4)nc(C)nc32)[C@H](O)[C@@H]1O [Example 27, N-Cyclopentyl-2-methyl-5′-O-methyl-adenosine] the “A1 Receptor Gene Assay ECR” value [2] was 3.02 and the “A3 Receptor Gene Assay ECR” value [1] was over 263.
With COC[C@H]1O[C@@H](n2cnc3c(NCC4CC4)nc(C)nc32)[C@H](O)[C@@H]1O [Example 28, N-Cyclopropylmethyl-2-methyl-5′-O-methyl-adenosine] the “A1 Receptor Gene Assay ECR” value [2] was 8.07 and the “A3 Receptor Gene Assay ECR” value [1] was over 99.
For “N-(2,3-Dihydroxy-propylamino)-5′-O-methyl-adenosine [Example 21]”, the “A3 Receptor Gene Assay ECR” value [1] was 135.
